Test results: US9428539B2, “2β,3α,5α-trihydroxy-androst-6-one and preparation methods and use thereof” (Guangzhou Cellprotek Pharmaceutical Co., Ltd., priority 2013, dated 2016)

Experiments:
[1] = test system: cerebellar granule neurons; test: Glutamate-induced damage of cerebellar granule neurons (FDA staining); format: cell-based; conditions: glutamate 100 μM, glycine 10 μM, Mg2+-free Locke buffer; 30 min pre-incubation; FDA staining after 24 h
Experimental: Cerebellar granule neurons cultured in vitro for 8 days were grouped. Treatment groups received MK801 or YC-10 at various concentrations, followed by incubation for 30 min. Following that, model group and all treatment groups were replaced with Mg^2+-free Locke buffer, and added with glutamate (100 μM final concentration), Glycine (10 μM final concentration) and drugs at respective concentrations. Cells were incubated at 37° C. for 30 minutes, replaced with original medium, incubated for further 24 h, followed by FDA staining.

[2] = test system: LN18 cells; test: MTT cell survival assay, LN18 cells; format: cell-based; conditions: 250, 500, 1000 μM, 24 h post treatment, P<0.05 vs control
Experimental: (§1) Cell seeding and treatment: Logarithmic phase of LN18 and DBTRG-50MG cells were prepared to cell suspensions with complete medium. Cells were seeded into a 96-well plate at a density of 100 μl per well, 3×10^4/ml. 12 h post seeding, full cell adherence was observed. To the wells was added YC-10 to a final concentration of YC-10 being 250, 500, and 1000 μM, with each concentration group having 5 repeats.
(§2) Reaction of MTT with succinate dehydrogenase: At 24th h of culturing, 10 μl (5 mg/ml) of MTT was added to each well, followed by 4 h incubation. At this time, granulate violet formazan crystalline can be observed in live cells by microscopy.
(§3) Formazan particle dissolution: Supernatant was carefully discharged. To the wells was added DMSO at 100 μl/well to dissolve the crystalline. The mixture was vibrated on a mini oscillator for 5 min and measured for optical density (OD value) at 570 nm for each well by enzyme-linked immunometric assay.
(§4) Each group of experiments was repeated 3 times.
(§5) Survival (%)=OD value in treatment group/OD value in control group*100%.
(§6) All data was presented as mean±SD. SPSS 13.0 statistics package software was used. One-Way ANOVA and t-test were used to analyze the data. Sigmaplot software was used to give FIG. 1.

[3] = test system: DBTRG-50MG cells; test: MTT cell survival assay, DBTRG-50MG cells; format: cell-based; conditions: 250, 500, 1000 μM, 24 h post treatment, P<0.05 vs control
Experimental: as §1, §2, §3, §4, §5, §6

[4] = test system: KM mice; test: Maximal tolerance dose test; format: in vivo
Experimental: YC-10 injections at concentration of 25 mg/mL were prepared with 40% hydroxypropyl cyclodextrin, and were injected through tail vein to 30 KM mice (half males and half females, weighted 18-22 g) at does of 0.1 mL/10 g.
The mice were continuously observed. All mice behaved and ate as usual, with bright coat color and fine fur. No abnormal secretions in mouth, eyes, nose, or ears were observed. Mice defecated normally. Mice weights were slighted increase. No mice died. Mice were sacrificed after 14 days, dissected and visual examined on important organs such as heart, liver, spleen, kidney, and gastrointestinal. No abnormal changes were observed.

[5] = test system: cerebellar granule neurons; test: Low potassium-induced death of cerebellar granule neurons (FDA staining); format: cell-based; conditions: 50 μM, 5K (5 mM KCl) BME medium, 24 h
Experimental: Cerebellar granule neurons were cultured in vitro for 8 days. Treatment groups received YC-10 at various concentrations and incubated for 30 min. Following that, model group and all treatment groups were replaced with 5K (i.e., 5 mM KCl) BME medium (25K BME for control group), and added with YC-10 at respective concentrations. Cells were incubated at 37° C. for 24 h, followed by FDA staining.

[6] = test system: retinal ganglion cell; test: Optic nerve clamping injury model, retinal ganglion cell death; format: in vivo; conditions: rats; 20 mg/kg via tail vein 20 min before surgery, 2 h post operation, Day 2, Day 3; pathological examination at Day 7
Experimental: 10% chloral hydrate was used to anesthetize rats. YC-10 (20 mg/kg) or solvents were administered via tail vein 20 min before surgery. Eyes were subject to topical anesthesia. Conjunctiva was cut along limbus cornea with corneal scissors and intraocular microforceps. Lateral rectus was bluntly dissected to fully expose optic nerve. A cross action forceps was used to clamp the optic nerve for 5 seconds at 2 mm posterior to the eyeball, and then released. Antibiotic eye ointment was applied post operation to prevent infection. Drugs were administered at 2 h post operation, Day 2, and Day 3. Eyeballs were obtained for pathological examination at Day 7.

[7] = test system: retinal ganglion cell; test: Eye high pressure and ischemia injury model, retinal ganglion cell death; format: in vivo; conditions: rats; 20 mg/kg via tail vein before modeling, 2 h, Day 2, Day 3; 130 mmHg, 1 h ischemia; pathological examination at Day 7
Experimental: 10% chloral hydrate was used to anesthetize rats. Eyes were subject to topical anesthesia. Perfusion apparatus was placed 176 cm above rats' eyeballs (resulting in 130 mmHg intra-ocular pressure). 30 G ½ syringe needle was carefully inserted into anterior chamber. The eyeballs became white and starting time of ischemia was recorded. 1 h post ischemia, the syringe needle was quickly withdrawn and eyes were cared by antibiotic eyedrops. Rats were raised back to cage. Drugs were administered 20 before modeling for solvent group and YC-10 group (20 mg/kg). At 2 h, Day 2 and Day 3 post modeling, rats were treated with YC-10 via tail vein. At Day 7 post modeling, eyeballs were obtained for pathological examination.

C[C@]12N[C@H](Cc3ccccc31)c1ccccc12 [MK801, reference compound]
protection of cerebellar granule neurons from glutamate-induced damage [1]: able to prevent cerebella granule neurons from glutamate-induced injury

C[C@@]12CCCC1C1CC(=O)[C@@]3(O)C[C@H](O)[C@@H](O)C[C@]3(C)C1CC2 (stereo partly drawn) [YC-10, 2β,3α,5α-trihydroxy-androst-6-one]
cell survival rate (tumor cell killing) [2]: killed tumor cells in a dose-dependent manner
cell survival rate (tumor cell killing) [3]: killed tumor cells in a dose-dependent manner
toxicity to mouse (behaviour, weight, organ examination) ([4]; 250 mg/kg tail vein injection in 40% hydroxypropyl cyclodextrin, observed 14 days): nontoxic
mortality ([4]; 250 mg/kg tail vein injection, 14 days): No mice died
protection of cerebellar granule neurons from glutamate-induced damage [1]: effective in preventing glutamate-induced excitotoxin damage of cerebellar granule neurons in a dose-dependent manner
protection of cerebellar granule neurons from low potassium-induced death [5]: could prevent neuron from low potassium-induced death
protection of retinal ganglion cell from optic nerve clamping injury-induced death [6]: slow down or prevent from clamping injury-induced death
protection of retinal ganglion cell from eye high pressure and ischemia-induced death [7]: reduce or prevent from ischemia-induced death
